By IC50 is commonly meant the concentration at which inhibition is half-maximal. The low end stands for greater potency in that assay, the high end for weaker potency in that assay.

The assay has as its target T1, human IL-17A (Homo sapiens, UniProt Q16552).
T1 construct: purchased R&D Systems 7955-IL/CF
T1 sequence (Q16552 24-155): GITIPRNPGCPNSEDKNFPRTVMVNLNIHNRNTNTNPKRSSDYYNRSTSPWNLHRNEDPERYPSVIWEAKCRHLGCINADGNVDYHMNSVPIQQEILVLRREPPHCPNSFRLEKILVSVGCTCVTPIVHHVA
The experiment in a line: IL-17A AlphaLISA competition assay (block of IL-17A binding to its receptor IL-17RA). The note with it: mean IC50 (n≥2), block of IL-17A binding to IL-17RA. The method, then: The ability of the compounds to block binding of IL-17A to its receptor, IL-17RA, was analysed in a competition assay using AlphaLISA technology (Perkin Elmer). The assay is a bead based AlphaLISA where the IL-17RA is captured on the acceptor bead via an Fc tag and IL-17A is captured on the streptavidin donor bead via a biotinylated anti-IL17A antibody.
Assay buffer was prepared by adding 0.05% Tween-20 (v/v) and 0.1% BSA to Phosphate Buffered Saline (PBS). The assay was carried out in 384-well white low volume plates (Perkin Elmer #6008359). 10 μL of a 7.5 nM stock of human recombinant IL-17A (R&D Systems 7955-IL/CF) diluted in assay buffer was dispensed into the assay plate and compounds or DMSO vehicle control were added in a volume of 75 nL using an acoustic dispenser (Beckman). The compounds were pre-incubated with the IL-17A for 30 min at room temperature prior to addition of 5 μL of a 5 nM stock of human recombinant IL-17RA/Fc chimera (R&D Systems 177-IR-100) diluted in assay buffer. The IL-17A was incubated with the receptor for a further 90 minutes at room temperature before addition of 5 μL of a mixture of anti-human Fc IgG acceptor beads (75 μg/mL, Perkin Elmer AL1030) and anti-IL-17A biotin conjugated antibody (5 nM, Abcam, #ab155575) in assay buffer. After a further 30 min incubation at room temperature, 5 μL of streptavidin donor beads (75 μg/mL, Perkin Elmer 6760002S) were added and the plate was incubated for 3 h in the dark.
The AlphaLisa signal was measured using the PheraSTAR plate reader (BMG). Data were analysed using GeneData Screener and fitted to a 4-parameter logistic equation. The IC50 values were calculated using the DMSO vehicle as the negative control and a high concentration (4 μM) of a reference IL-17A inhibitor as the positive control. All compounds were analysed at least in duplicate (n≥2).
In turn, `O=C(NC(C(=O)Nc1cc(CN2CC(C(F)(F)F)NC2=O)ccn1)C1CCC(F)CC1)c1nonc1C1CC1` [Example 292, 4-cyclopropyl-N-((S)-1-((1r,4S)-4-fluorocyclohexyl)-2-oxo-2-((4-(((S)-2-oxo-4-(trifluoromethyl)imidazolidin-1-yl)methyl)pyridin-2-yl)amino)ethyl)-1,2,5-oxadiazole-3-carboxamide] returned an IC50 of 0.104 µM.
Under `Cc1nonc1C(=O)N[C@H](C(=O)Nc1cc(CN2C[C@@H](C(F)(F)F)NC2=O)ccn1)C(C1CC1)C1CC1` [Example 18, N-((S)-1,1-dicyclopropyl-3-oxo-3-((4-(((S)-2-oxo-4-(trifluoromethyl)imidazolidin-1-yl)methyl)pyridin-2-yl)amino)propan-2-yl)-4-methyl-1,2,5-oxadiazole-3-carboxamide] stands 0.448 µM.
Under `Cn1nccc1C(=O)N[C@H](C(=O)Nc1cc(C[C@H]2C[C@@H](C(F)(F)F)NC2=O)ccn1)C1CCC(F)(F)CC1` [Example 224, N-((S)-1-(4,4-difluorocyclohexyl)-2-oxo-2-((4-(((3S,5S)-2-oxo-5-(trifluoromethyl)pyrrolidin-3-yl)methyl)pyridin-2-yl)amino)ethyl)-1-methyl-1H-pyrazole-5-carboxamide] stands 0.135 µM; under `CCc1nocc1C(=O)NC(C(=O)Nc1cc(C(NC(=O)CCC(F)(F)F)C2CC2)ccn1)C1CCC(F)(F)CC1` (stereo not shown) [Example 49, N-(2-((4-(cyclopropyl(4,4,4-trifluorobutanamido)methyl)pyridin-2-yl)amino)-1-(4,4-difluorocyclohexyl)-2-oxoethyl)-3-ethylisoxazole-4-carboxamide], 0.776 µM; under `COCC(c1ccnc(NC(=O)[C@@H](NC(=O)c2ncsc2C)[C@H]2CC[C@H](C)CC2)c1)N1C[C@@H](C(F)(F)F)NC1=O` (single isomer, unassigned) [Example 91], 0.119 µM.
For `CC(C)(C)OCC(NC(=O)c1nonc1C1CC1)C(=O)Nc1cc(CN2C[C@@H](C(F)(F)F)NC2=O)ccn1` (stereo partly drawn) [Example 82, N-(3-(tert-butoxy)-1-oxo-1-((4-(((S)-2-oxo-4-(trifluoromethyl)imidazolidin-1-yl)methyl)pyridin-2-yl)amino)propan-2-yl)-4-cyclopropyl-1,2,5-oxadiazole-3-carboxamide], the IC50 was 1.17 µM.
`Cn1nccc1C(=O)NC(C(=O)Nc1cc(C(C)(C)N2C[C@@H](C(F)(F)F)NC2=O)ccn1)C1CCC(F)(F)CC1` (stereo in doubt) [Example 172, N—((S)-1-(4,4-difluorocyclohexyl)-2-oxo-2-((4-(2-((S)-2-oxo-4-(trifluoro-methyl)imidazolidin-1-yl)propan-2-yl)pyridin-2-yl)amino)ethyl)-1-methyl-1H-pyrazole-5-carboxamide] returned an IC50 of 1.17 µM.
Under `Cn1nccc1C(=O)N[C@H](C(=O)Nc1cc(OC2CCNC2=O)ccn1)[C@H]1CC[C@H](C)CC1` (stereo partly drawn) [Example 118, 1-methyl-N-((1S)-1-((1r,4S)-4-methylcyclohexyl)-2-oxo-2-((4-((2-oxopyrrolidin-3-yl)oxy)pyridin-2-yl)amino)ethyl)-1H-pyrazole-5-carboxamide] stands 8.97 µM; under `CC(C)(C)OC(=O)N[C@H](C(=O)Nc1cc(CN2C[C@@H](C(F)(F)F)NC2=O)c(F)cn1)[C@H]1CC[C@H](C)CC1` [Example 50, tert-butyl ((S)-2-((5-fluoro-4-(((S)-2-oxo-4-(trifluoromethyl)imidazolidin-1-yl)methyl)pyridin-2-yl)amino)-1-((1r,4S)-4-methylcyclohexyl)-2-oxoethyl)carbamate], 2.95 µM.
Under `CC(C)n1nccc1C(=O)N[C@H](C(=O)Nc1cc(O[C@@H]2C[C@@H](C(F)(F)F)NC2=O)ccn1)[C@H]1CC[C@H](C)CC1` [Example 323, 1-isopropyl-N—((S)-1-((1r,4S)-4-methylcyclohexyl)-2-oxo-2-((4-(((3R,5S)-2-oxo-5-(trifluoromethyl)pyrrolidin-3-yl)oxy)pyridin-2-yl)amino)ethyl)-1H-pyrazole-5-carboxamide] stands 1.21 µM.

Source of the values: patent publication US20260200928A1, “THERAPEUTIC COMPOUNDS” (Sanofi, priority 2022, published 2026).
